# Molecular target: α1β1γδ subtype of nicotinic acetylcholine receptors (Rattus norvegicus, UniProt P18916+P25108+P25110)
# Assay: biochemical
# Type: binding
# Details: read-out: Affinities for receptors Ki α1β1γδ; rat muscle extract, [3H]-α-Bgt 1 nM
# Description: The methods for evaluating the binding capabilities of the compounds at nicotinic acetylcholine receptors are different by subtypes of receptors. The binding capabilities of the compounds at α4β2 nicotinic acetylcholine receptors are examined using rat brain membrane obtained from whole homogenized brain, and determining the inhibiting rate of the compounds against [^3H]-cytisine binding to said brain membrane. Furthermore, the binding capabilities of the compounds at α1β1γδ nicotinic acetylcholine receptors are examined using homogenized rat muscle, and determining the inhibiting rate of the compounds against [^3H]-α-bungarotoxin binding to said muscle homogenate.
# The affinity of the compounds of the present invention to α1β1γδ subtype of nicotinic acetylcholine receptors was measured by the following method, which was modified method described by Garcha H. S., Thomas P., Spivak C. E., Wonnacott S. & Stolerman I. P., Psychropharmacology, 110, 347-354 (1993).
# (1) Preparation of Rat Skeletal Muscles Containing α1β1γδ Subtype of Nicotinic Acetylcholine Receptors
# The substantially same animals described in the Biological Experiment 1 were used.
# The isolation of α1β1γδ subtype of nicotinic acetylcholine receptors was performed as follow. That is, rat posterior skeletal muscles were isolated just after sacrificed by decapitation, washed with ice-cooled saline solution and then frozen at −80° C. with liquid nitrogen and stored till using. After thawing the frozen muscles, tissue was homogenized (40% w/v) with buffer solution [2.5 mM of sodium phosphate buffer (pH:7.2), 90 mM of NaCl, 2 mM of KCl, 1 mM of EDTA, 2 mM of benzamidine, 0.1 mM of benzethonium chloride, 0.1 mM of PMSF, 0.01% of sodium azide] in Waring blender (Waring blender 34BL97; WARING PRODUCTS DIVISION DYNAMICS CORPORATION OF AMERICA) for 60 seconds. The homogenate were centrifuged under 20,000×G for 60 minutes at 4° C. The supernatant was separated and the resulting pellet was added to the same buffer (1.5 ml/g wet weight), and homogenized under the same conditions. Triton X100 (2% w/v) was added and the mixture was stirred for 3 hours at 4° C. The centrifugation at 100,000×G for 60 minutes at 4° C. yielded the rat muscle extract as supernatant. This was stored at 4° C. for up to 4 weeks, and used for binding assays at receptors.
# (2) Experiments of α1β1γδ Subtype of Nicotinic Acetylcholine Receptors Binding
# Receptors binding experiments were performed as follow. That is, the extract of rat muscle containing 600-900 μg of protein was added to test tubes containing test compounds and incubated for 15 minutes at 37° C. Then, to this mixture was added 1 nM of [^3H]-α-bungarotoxin (α-Bgt) and further incubated for 2 hours. The samples were isolated by vacuum filtration onto Whatman GF/B filters, which were prerinsed with 0.5% polyethylenimine just prior to sample filtration, using Brandel multi manifold cell harvester. The filters were rapidly rinsed with washing solution (10 mM of KH2PO4, 150 mM of NaCl, pH 7.2, room temperature) (5×1 ml). The filters were counted in 3 ml of clearsol I (Nacalai Tesque Inc.). The determination of nonspecific binding was incubated in the presence of 1 μM α-Bgt. The solutions containing α-Bgt (labeled/non-labeled) were prepared by using buffer solution containing 0.25% of BSA. In the receptor binding experiments, said buffer solution was added for adjusting the final concentration of BSA to be 0.05%.
# The analyses of the experimental results were conducted by the same way as described in the Biological Experiment 1.
# α1β1γδ subtype of nicotinic acetylcholine receptors, sequence (P25109 24-501): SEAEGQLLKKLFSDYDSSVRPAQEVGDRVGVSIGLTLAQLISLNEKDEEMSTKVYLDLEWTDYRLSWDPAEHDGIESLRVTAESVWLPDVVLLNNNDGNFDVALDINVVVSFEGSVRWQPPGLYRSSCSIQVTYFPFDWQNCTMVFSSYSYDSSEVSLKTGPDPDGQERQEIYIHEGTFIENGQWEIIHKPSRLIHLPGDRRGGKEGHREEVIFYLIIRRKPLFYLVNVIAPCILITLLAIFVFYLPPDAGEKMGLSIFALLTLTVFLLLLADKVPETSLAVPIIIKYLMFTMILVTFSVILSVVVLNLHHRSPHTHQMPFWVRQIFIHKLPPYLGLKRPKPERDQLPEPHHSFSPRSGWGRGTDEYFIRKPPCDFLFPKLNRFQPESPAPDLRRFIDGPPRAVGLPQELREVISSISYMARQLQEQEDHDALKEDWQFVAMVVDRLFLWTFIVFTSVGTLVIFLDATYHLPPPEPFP
# α1β1γδ subtype of nicotinic acetylcholine receptors, sequence (P25110 22-517): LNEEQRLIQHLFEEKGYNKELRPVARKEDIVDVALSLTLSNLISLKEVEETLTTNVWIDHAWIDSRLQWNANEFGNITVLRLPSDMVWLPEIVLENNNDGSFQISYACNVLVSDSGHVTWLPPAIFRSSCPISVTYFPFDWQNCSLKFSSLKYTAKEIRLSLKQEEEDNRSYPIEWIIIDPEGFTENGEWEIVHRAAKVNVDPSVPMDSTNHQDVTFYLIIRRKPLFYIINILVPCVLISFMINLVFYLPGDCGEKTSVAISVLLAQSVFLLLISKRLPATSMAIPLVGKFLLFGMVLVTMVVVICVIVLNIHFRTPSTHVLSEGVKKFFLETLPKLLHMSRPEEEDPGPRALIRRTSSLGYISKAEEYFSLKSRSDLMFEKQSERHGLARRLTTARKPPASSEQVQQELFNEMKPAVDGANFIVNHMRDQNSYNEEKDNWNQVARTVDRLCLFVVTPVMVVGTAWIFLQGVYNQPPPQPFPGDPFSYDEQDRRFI
# α1β1γδ subtype of nicotinic acetylcholine receptors, sequence (P25108 21-457): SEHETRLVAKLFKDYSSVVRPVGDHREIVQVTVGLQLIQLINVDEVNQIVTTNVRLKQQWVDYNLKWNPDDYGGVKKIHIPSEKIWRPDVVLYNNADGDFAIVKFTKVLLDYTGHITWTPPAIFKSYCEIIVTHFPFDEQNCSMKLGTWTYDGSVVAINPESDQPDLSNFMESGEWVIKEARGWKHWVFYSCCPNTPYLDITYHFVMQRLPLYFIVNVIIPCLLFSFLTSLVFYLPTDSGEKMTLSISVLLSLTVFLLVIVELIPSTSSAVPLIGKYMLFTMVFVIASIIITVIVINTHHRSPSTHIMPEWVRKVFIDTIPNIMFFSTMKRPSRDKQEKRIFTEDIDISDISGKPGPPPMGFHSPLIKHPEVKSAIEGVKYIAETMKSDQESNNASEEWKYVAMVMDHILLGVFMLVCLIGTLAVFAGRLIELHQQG
# α1β1γδ subtype of nicotinic acetylcholine receptors, sequence (P18916 23-519): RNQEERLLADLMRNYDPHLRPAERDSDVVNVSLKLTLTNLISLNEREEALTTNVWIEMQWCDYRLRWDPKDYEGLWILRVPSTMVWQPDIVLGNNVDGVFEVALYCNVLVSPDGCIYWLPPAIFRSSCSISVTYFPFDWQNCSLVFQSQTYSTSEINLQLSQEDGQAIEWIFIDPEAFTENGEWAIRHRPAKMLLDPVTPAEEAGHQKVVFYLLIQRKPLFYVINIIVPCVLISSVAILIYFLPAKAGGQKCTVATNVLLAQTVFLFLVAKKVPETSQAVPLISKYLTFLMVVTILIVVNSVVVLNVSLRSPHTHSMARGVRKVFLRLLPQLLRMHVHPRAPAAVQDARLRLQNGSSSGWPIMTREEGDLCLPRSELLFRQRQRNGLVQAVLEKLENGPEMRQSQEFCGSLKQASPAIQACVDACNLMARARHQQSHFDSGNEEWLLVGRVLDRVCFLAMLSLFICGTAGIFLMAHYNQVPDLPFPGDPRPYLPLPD
row,Compound,Ki
1,"Nc1nccn1CCc1cccnc1 [Compound 14, 2-amino-1-[2-(3-pyridyl)ethyl]imidazole]",223 µM
2,"Nc1nccn1CCc1cncc(Br)c1 [Compound 25, 2-amino-1-[2-(5-bromo-3-pyridyl)ethyl]imidazole]",36 µM
3,"Nc1nccn1CCc1cnc(Cl)s1 [Compound 23, 2-amino-1-[2-(2-chloro-5-thiazolyl)ethyl]imidazole]",44 µM
4,"Cc1ccc(CCn2ccnc2N)cn1 [Compound 11, 2-amino-1-[2-(6-methyl-3-pyridyl)ethyl]imidazole]",1150 µM
5,"Nc1nccn1CCc1cccnn1 [Compound 30, 2-amino-1-[2-(3-pyridazinyl)ethyl]imidazole]",80 µM
6,"N=C1NCCCN1CCc1ccc(Cl)nc1 [Compound 12, 1-[2-(6-chloro-3-pyridyl)ethyl]-2-imino-1,2,3,4,5,6-hexahydro-pyrimidine]",12 µM
7,"Nc1nccn1CCc1cnc(Cl)c(Cl)c1 [Compound 13, 2-amino-1-[2-(5,6-dichloro-3-pyridyl)ethyl]-imidazole]",40 µM
8,"Nc1nccn1CCc1cncnc1 [Compound 29, 2-amino-1-[2-(5-pyrimidyl)ethyl]imidazole]",447 µM
9,"Nc1nccn1CCc1ccnnc1 [Compound 34, 2-amino-1-[2-(4-pyridazinyl)ethyl]imidazole]",1270 µM
10,"Cc1cncc(CCn2ccnc2N)c1 [Compound 27, 2-amino-1-[2-(5-methyl-3-pyridyl)ethyl]imidazole]",339 µM

# Same assay, conditions: read-out: control % of [3H]-α-Bgt binding
Compound,remaining activity at 100 µM,remaining activity at 1000 µM
"Nc1nccn1CCc1cnccn1 [Compound 31, 2-amino-1-[2-(2-pyrazinyl)ethyl]imidazole]",110%,53%
